What was measured:
ITK = target: T1, ITK (Homo sapiens, UniProt Q08881); experiment: Inhibition of a panel of kinases, in vitro HotSpot kinase assay: ITK; assay type: biochemical; conditions: D-compounds panel data; 1 μM ATP
T1 sequence (Q08881 1-620): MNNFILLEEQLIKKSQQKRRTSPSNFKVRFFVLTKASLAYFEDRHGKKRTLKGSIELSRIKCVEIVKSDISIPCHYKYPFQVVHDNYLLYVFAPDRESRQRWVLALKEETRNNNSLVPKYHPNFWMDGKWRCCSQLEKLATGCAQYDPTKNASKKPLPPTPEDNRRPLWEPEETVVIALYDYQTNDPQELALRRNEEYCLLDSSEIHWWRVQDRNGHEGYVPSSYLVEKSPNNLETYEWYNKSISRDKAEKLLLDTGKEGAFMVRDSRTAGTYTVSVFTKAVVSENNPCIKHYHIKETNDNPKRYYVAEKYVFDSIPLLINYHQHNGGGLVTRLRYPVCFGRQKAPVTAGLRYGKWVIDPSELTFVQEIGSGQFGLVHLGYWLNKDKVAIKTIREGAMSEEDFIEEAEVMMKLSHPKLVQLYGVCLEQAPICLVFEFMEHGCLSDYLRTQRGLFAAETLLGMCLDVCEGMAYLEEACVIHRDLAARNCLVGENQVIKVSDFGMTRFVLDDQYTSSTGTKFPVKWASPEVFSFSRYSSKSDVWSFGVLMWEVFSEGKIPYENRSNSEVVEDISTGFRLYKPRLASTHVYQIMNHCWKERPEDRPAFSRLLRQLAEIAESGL
Experimental: The degree of inhibition of a panel of kinases is determined using the in vitro HotSpot kinase assay (purified enzymes, ^33P-ATP, an appropriate substrate and 1 μM ATP).

BTK-WT = target: T2, BTK-WT (Homo sapiens, UniProt Q06187); experiment: Btk in vitro inhibitory activity (one of Method A TR-FRET, Method B electrophoretic mobility shift, Method C radiometric filter binding); assay type: biochemical; conditions: D-compounds panel data; read-out: IC50 BTK-WT
T2 construct: purified from insect cells as a full-length construct containing an N-terminal 6X-His tag; His6 (N); made in house; host or cells: insect cells (baculovirus Sf21 in Method B)
T2 sequence (Q06187 whole entry): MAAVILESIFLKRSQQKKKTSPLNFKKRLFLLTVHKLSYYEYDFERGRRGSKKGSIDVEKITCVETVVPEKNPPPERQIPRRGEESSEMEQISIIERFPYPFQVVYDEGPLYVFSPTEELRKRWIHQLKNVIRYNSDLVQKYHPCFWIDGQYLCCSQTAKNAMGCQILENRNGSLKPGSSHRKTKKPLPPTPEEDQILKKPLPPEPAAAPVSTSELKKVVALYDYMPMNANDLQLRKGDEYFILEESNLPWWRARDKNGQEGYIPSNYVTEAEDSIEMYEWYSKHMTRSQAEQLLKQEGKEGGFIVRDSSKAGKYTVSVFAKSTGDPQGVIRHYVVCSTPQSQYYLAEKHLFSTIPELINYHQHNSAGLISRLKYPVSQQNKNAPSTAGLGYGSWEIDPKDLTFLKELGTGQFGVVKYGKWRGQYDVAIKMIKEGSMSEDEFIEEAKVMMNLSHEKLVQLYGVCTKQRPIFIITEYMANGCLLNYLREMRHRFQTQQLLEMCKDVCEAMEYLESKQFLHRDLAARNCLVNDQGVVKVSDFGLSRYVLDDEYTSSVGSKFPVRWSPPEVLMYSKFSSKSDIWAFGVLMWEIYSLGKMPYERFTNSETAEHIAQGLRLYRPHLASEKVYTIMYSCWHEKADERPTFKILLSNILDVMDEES

Row | SMILES | IC50 (ITK) | IC50 (BTK-WT)
1 | COCCN(C)Cc1cc(Nc2nc(N3CCC[C@@H](NC(=O)c4ccc(C5CC5)cc4)[C@H]3C)cnc2C(N)=O)sn1 [Example D-269, 5-[(2R,3R)-3-(4-cyclopropylbenzamido)-2-methylpiperidin-1-yl]-3-[(3-{[(2-methoxyethyl)(methyl)amino]methyl}-1,2-thiazol-5-yl)amino]pyrazine-2-carboxamide] | 100 to 1000 nM | ≤ 10 nM
2 | C[C@@H]1[C@H](NC(=O)c2ccc(C3CC3)cc2)CCCN1c1cnc(C(N)=O)c(Nc2cnn(C3CCC(F)(F)CC3)c2)n1 [Example D-307, 5-[(2R,3R)-3-(4-cyclopropylbenzamido)-2-methylpiperidin-1-yl]-3-{[1-(4,4-difluorocyclohexyl)-1H-pyrazol-4-yl]amino}pyrazine-2-carboxamide] | 1000 to 10000 nM | ≤ 10 nM
3 | C[C@@H]1[C@H](NC(=O)c2ccc(C3(CO)CC3)cc2)CCCN1c1cnc(C(N)=O)c(Nc2cnn(C)c2)n1 [Example D-260, 5-[(2R,3R)-3-{4-[1-(hydroxymethyl)cyclopropyl]benzamido}-2-methylpiperidin-1-yl]-3-[(1-methyl-1H-pyrazol-4-yl)amino]pyrazine-2-carboxamide] | 100 to 1000 nM | ≤ 10 nM
4 | C[C@@H]1[C@H](NC(=O)c2ccc(C3CC3)cn2)CCCN1c1cnc(C(N)=O)c(Nc2ccc(OC3CCN(C)CC3)cc2)n1 [Example D-297, 5-[(2R,3R)-3-(5-cyclopropylpyridine-2-amido)-2-methylpiperidin-1-yl]-3-({4-[(1-methylpiperidin-4-yl)oxy]phenyl}amino)pyrazine-2-carboxamide] | 10 to 100 nM | ≤ 10 nM
5 | C[C@@H]1[C@H](NC(=O)c2ccc(C3CC3)cc2)CCCN1c1cnc(C(N)=O)c(Nc2cnn(C(F)F)c2)n1 [Example D-275, 5-[(2R,3R)-3-(4-cyclopropylbenzamido)-2-methylpiperidin-1-yl]-3-{[1-(difluoromethyl)-1H-pyrazol-4-yl]amino}pyrazine-2-carboxamide] | 1000 to 10000 nM | ≤ 10 nM
6 | C[C@@H]1[C@H](NC(=O)c2ccc(C3CC3)cc2)CCCN1c1cnc(C(N)=O)c(Nc2cnn(C3CCN(C(=O)C4CC4)CC3)c2)n1 [Example D-288, 3-{[1-(1-cyclopropanecarbonylpiperidin-4-yl)-1H-pyrazol-4-yl]amino}-5-[(2R,3R)-3-(4-cyclopropylbenzamido)-2-methylpiperidin-1-yl]pyrazine-2-carboxamide] | 100 to 1000 nM | ≤ 10 nM
7 | C[C@@H]1[C@H](NC(=O)c2ccc3nccn3c2)CCCN1c1cnc(C(N)=O)c(Nc2cnn(C)c2)n1 [Example D-266, 5-[(2R,3R)-3-(imidazo[1,2-a]pyridine-6-amido)-2-methylpiperidin-1-yl]-3-[(1-methyl-1H-pyrazol-4-yl)amino]pyrazine-2-carboxamide] | 10 to 100 nM | ≤ 10 nM
8 | C[C@@H]1[C@H](NC(=O)c2ccc(C3CC3)cc2)CCCN1c1cnc(C(N)=O)c(Nc2cnn(-c3ccncc3)c2)n1 [Example D-284, 5-[(2R,3R)-3-(4-cyclopropylbenzamido)-2-methylpiperidin-1-yl]-3-{[1-(pyridin-4-yl)-1H-pyrazol-4-yl]amino}pyrazine-2-carboxamide] | 100 to 1000 nM | ≤ 10 nM
9 | C[C@@H]1[C@H](NC(=O)c2ccc(C(O)C(F)(F)F)cc2)CCCN1c1cnc(C(N)=O)c(Nc2cnn(C)c2)n1 (single isomer, unassigned) [Example D-250] | 100 to 1000 nM | ≤ 10 nM
10 | C[C@@H]1[C@H](NC(=O)c2ccc3cnn(C)c3c2)CCCN1c1cnc(C(N)=O)c(Nc2cnn(C)c2)n1 [Example D-259, N-[(2R,3R)-1-{5-carbamoyl-6-[(1-methyl-1H-pyrazol-4-yl)amino]pyrazin-2-yl}-2-methylpiperidin-3-yl]-1-methyl-1H-indazole-6-carboxamide] | 100 to 1000 nM | ≤ 10 nM
